Experiments:
KARPAS-299 [1] = assay: cells; conditions: Homo sapiens, KARPAS-299, 72 h
Description: Antiproliferative activity against human KARPAS299 cells expressing NMP-ALK assessed as reduction in cell viability incubated for 72 hrs by MTT assay

NCI-H2228 = assay: cells; conditions: Homo sapiens, NCI-H2228, 72 h
Description: Antiproliferative activity against human NCI-H2228 cells expressing EML4-ALK assessed as reduction in cell viability incubated for 72 hrs by MTT assay

SH-SY5Y = assay: cells; conditions: Homo sapiens, 72 h
Description: Antiproliferative activity against human SH-SY5Y cells expressing ALK F1174L mutant assessed as reduction in cell viability incubated for 72 hrs by MTT assay

cells = conditions: Homo sapiens, SKNBE2, 72 h
Description: Antiproliferative activity against human SK-N-BE(2) cells expressing wild type ALK assessed as reduction in cell viability incubated for 72 hrs by MTT assay

KARPAS-299 [2] = assay: Cell cycle arrest in human KARPAS299 cells expressing […] assessed as accumulation of cells at G2 phase at 1 uM incubated for 48 hrs by propidium iodide staining based flow cytometry (reference value: 3.68%); assay type: functional
KARPAS-299 [3] = assay: Cell cycle arrest in human KARPAS299 cells expressing […] assessed as accumulation of cells at G1 phase at 1 uM incubated for 48 hrs by propidium iodide staining based flow cytometry (reference value: 58.94%); assay type: functional
[4] = biological target: Proto-oncogene tyrosine-protein kinase ROS (Homo sapiens, UniProt P08922); assay: Inhibition of recombinant human N-terminal GST-tagged ROS (1883 to 2347 residues) expressed in baculovirus expression system using IRS1 as substrate incubated with enzyme and substrate for 5 mins followed by ATP addition followed by further incubation for 30 mins by HTRF assay
Chain of Proto-oncogene tyrosine-protein kinase ROS (P08922 whole entry, the tested form may be a part): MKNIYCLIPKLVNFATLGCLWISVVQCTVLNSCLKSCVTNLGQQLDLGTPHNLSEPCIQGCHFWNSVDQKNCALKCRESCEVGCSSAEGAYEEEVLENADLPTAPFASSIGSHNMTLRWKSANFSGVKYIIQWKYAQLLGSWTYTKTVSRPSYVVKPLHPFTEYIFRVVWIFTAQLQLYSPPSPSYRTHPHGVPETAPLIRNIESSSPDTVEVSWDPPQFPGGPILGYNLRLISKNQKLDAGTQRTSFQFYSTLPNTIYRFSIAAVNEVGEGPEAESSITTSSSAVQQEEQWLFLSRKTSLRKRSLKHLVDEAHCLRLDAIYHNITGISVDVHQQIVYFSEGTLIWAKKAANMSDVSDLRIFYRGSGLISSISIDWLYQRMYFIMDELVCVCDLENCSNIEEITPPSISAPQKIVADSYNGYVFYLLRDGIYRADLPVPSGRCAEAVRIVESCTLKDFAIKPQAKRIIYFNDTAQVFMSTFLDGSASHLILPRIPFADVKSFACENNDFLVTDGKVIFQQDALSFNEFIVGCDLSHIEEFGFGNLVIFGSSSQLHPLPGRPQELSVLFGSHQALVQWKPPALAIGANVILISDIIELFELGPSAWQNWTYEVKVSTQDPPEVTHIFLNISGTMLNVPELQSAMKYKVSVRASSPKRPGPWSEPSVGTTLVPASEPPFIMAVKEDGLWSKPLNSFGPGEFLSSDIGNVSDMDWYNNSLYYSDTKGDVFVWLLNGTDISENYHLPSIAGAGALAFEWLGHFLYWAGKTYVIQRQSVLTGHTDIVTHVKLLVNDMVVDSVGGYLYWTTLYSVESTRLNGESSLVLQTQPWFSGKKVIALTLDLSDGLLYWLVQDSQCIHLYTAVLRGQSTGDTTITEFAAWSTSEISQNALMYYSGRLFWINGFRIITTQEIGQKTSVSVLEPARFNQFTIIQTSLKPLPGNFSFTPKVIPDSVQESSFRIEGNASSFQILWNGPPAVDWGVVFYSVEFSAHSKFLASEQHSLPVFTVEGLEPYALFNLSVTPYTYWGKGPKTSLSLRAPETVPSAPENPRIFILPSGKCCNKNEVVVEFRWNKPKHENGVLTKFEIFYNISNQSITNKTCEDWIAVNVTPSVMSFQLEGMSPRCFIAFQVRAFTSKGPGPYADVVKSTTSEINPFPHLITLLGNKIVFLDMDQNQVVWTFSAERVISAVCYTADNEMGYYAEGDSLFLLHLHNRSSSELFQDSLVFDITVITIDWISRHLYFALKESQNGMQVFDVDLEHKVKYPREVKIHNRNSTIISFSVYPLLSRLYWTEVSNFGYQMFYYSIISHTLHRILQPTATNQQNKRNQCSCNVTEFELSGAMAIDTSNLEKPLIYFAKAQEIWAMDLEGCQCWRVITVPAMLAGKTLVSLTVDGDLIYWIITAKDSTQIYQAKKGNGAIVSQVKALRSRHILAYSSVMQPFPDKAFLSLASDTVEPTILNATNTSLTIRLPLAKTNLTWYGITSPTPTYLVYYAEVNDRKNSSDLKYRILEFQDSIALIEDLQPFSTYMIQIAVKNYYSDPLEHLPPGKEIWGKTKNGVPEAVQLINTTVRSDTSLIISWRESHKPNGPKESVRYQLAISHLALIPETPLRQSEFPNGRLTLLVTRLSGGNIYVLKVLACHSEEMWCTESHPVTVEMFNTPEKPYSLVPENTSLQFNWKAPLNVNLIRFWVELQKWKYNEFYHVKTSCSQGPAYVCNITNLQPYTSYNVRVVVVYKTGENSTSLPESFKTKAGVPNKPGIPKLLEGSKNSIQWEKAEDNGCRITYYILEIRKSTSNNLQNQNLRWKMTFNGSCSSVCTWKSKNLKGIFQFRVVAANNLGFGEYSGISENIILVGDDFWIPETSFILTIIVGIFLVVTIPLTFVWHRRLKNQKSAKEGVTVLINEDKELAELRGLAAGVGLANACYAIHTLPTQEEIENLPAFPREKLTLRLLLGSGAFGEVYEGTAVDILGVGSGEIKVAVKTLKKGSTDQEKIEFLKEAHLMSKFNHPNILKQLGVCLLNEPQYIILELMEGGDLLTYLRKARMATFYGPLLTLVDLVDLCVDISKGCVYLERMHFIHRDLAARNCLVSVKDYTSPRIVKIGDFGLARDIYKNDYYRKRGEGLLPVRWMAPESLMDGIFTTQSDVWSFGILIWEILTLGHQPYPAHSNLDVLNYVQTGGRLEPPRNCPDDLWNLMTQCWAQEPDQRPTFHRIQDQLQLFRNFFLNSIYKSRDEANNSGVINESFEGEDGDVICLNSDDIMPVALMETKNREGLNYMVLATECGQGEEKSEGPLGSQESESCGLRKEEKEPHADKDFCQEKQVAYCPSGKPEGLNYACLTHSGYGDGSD

KARPAS-299 [5] = assay: Cell cycle arrest in human KARPAS299 cells expressing […] assessed as accumulation of cells at S phase at 1 uM incubated for 48 hrs by propidium iodide staining based flow cytometry (reference value: 28.83%); assay type: functional

| IC50 (KARPAS-299 [1]) | Compound | also measured |
| --- | --- | --- |
| 790 nM | C[C@@H](Sc1cc(-c2ccn(Cc3ccccc3)c(=O)c2)cnc1N)c1c(Cl)ccc(F)c1Cl | – |
| 50 nM | C[C@@H](Oc1cc(-c2cc[nH]c(=O)c2)cnc1N)c1c(Cl)ccc(F)c1Cl | IC50 (NCI-H2228): 640 nM; IC50 (SH-SY5Y): 2070 nM; IC50 (cells): 750 nM |
| 4400 nM | CC(Oc1cc(-c2cc[nH]c(=O)c2)cnc1N)c1ccccc1 (stereo not given) | – |
| 2860 nM | CC(Oc1cc(-c2ccn(C)c(=O)c2)cnc1N)c1ccccc1 (stereo not given) | – |
| 720 nM | C[C@@H](Sc1cc(-c2cc[nH]c(=O)c2)cnc1N)c1c(Cl)ccc(F)c1Cl | – |
| 60 nM | CCn1ccc(-c2cnc(N)c(O[C@H](C)c3c(Cl)ccc(F)c3Cl)c2)cc1=O | IC50 (NCI-H2228): 1200 nM; IC50 (SH-SY5Y): 2510 nM; IC50 (cells): 1440 nM |
| > 20000 nM | CC(Oc1cc(-c2ccn(C)c(=O)c2)cnc1N)c1ccncc1 (stereo not given) | – |
| 280 nM | C[C@@H](Sc1cc(-c2ccn(CCN(C)C)c(=O)c2)cnc1N)c1c(Cl)ccc(F)c1Cl | – |
| 110 nM | CCCn1ccc(-c2cnc(N)c(O[C@H](C)c3c(Cl)ccc(F)c3Cl)c2)cc1=O | IC50 (NCI-H2228): 1220 nM; IC50 (SH-SY5Y): 2150 nM; IC50 (cells): 1430 nM |
| > 20000 nM | CC(NC(=O)c1cc(-c2ccn(C)c(=O)c2)cnc1N)c1c(Cl)ccc(F)c1Cl (stereo not given) | – |
| 7780 nM | Cc1ccc(C(C)Oc2cc(-c3ccn(C)c(=O)c3)cnc2N)cc1 (stereo not given) | – |
| > 20000 nM | CC(NC(=O)c1cc(-c2cc[nH]c(=O)c2)cnc1N)c1c(Cl)ccc(F)c1Cl (stereo not given) | – |
| 400 nM | C[C@@H](Sc1cc(-c2ccn(C)c(=O)c2)cnc1N)c1c(Cl)ccc(F)c1Cl | – |
| 130 nM | C[C@@H](Oc1cc(-c2ccn(Cc3ccccc3)c(=O)c2)cnc1N)c1c(Cl)ccc(F)c1Cl | IC50 (NCI-H2228): 1300 nM; IC50 (SH-SY5Y): 1350 nM; IC50 (cells): 1020 nM |
| 10200 nM | Cc1ccc(C(C)Oc2cc(-c3cc[nH]c(=O)c3)cnc2N)cc1 (stereo not given) | – |
| 20900 nM | CC(Oc1cc(-c2ccn(C)c(=O)c2)cnc1N)c1ccc(Cl)cc1 (stereo not given) | – |
| 40 nM | C[C@@H](Oc1cc(-c2ccn(CCN(C)C)c(=O)c2)cnc1N)c1c(Cl)ccc(F)c1Cl | IC50 (NCI-H2228): 440 nM; IC50 (SH-SY5Y): 1670 nM; Activity (KARPAS-299 [2]): 5.43%; Activity (KARPAS-299 [3]): 81.46%; IC50 [4]: 2.3 nM; Activity (KARPAS-299 [5]): 8%; IC50 (cells): 710 nM |
| 11900 nM | CC(Oc1cc(-c2ccn(C)c(=O)c2)cnc1N)c1ccccn1 (stereo not given) | – |
| 210 nM | CCOC(=O)Cn1ccc(-c2cnc(N)c(O[C@H](C)c3c(Cl)ccc(F)c3Cl)c2)cc1=O | IC50 (NCI-H2228): 3320 nM; IC50 (SH-SY5Y): 1850 nM; IC50 (cells): 1230 nM |
| 17800 nM | CC(Oc1cc(-c2cc[nH]c(=O)c2)cnc1N)c1ccc(Cl)cc1 (stereo not given) | – |
| 40 nM | C[C@@H](Oc1cc(-c2ccn(C)c(=O)c2)cnc1N)c1c(Cl)ccc(F)c1Cl | IC50 (NCI-H2228): 690 nM; IC50 (SH-SY5Y): 1870 nM; IC50 (cells): 830 nM |
| 11200 nM | CC(Oc1cc(-c2ccn(C)c(=O)c2)cnc1N)c1cccnc1 (stereo not given) | – |
| 320 nM | CC(Oc1cc(-c2ccn(Cc3ccccc3)c(=O)c2)cnc1N)c1c(Cl)ccc(F)c1Cl (racemic) | – |
| 200 nM | CC(Oc1cc(-c2ccn(C)c(=O)c2)cnc1N)c1c(Cl)ccc(F)c1Cl (racemic) | – |
| 120 nM | CC(Oc1cc(-c2cc[nH]c(=O)c2)cnc1N)c1c(Cl)ccc(F)c1Cl (racemic) | – |

From ChEMBL document CHEMBL4406858, “Discovery of 2-aminopyridines bearing a pyridone moiety as potent ALK inhibitors to overcome the crizotinib-resistant mutants” (Eur J Med Chem, 2019)
